Reference: article PMC3145970, “Specific CLK Inhibitors from a Novel Chemotype for Regulation of Alternative Splicing” (Chemistry & Biology, 2011)
Like-named read-outs stand apart in the source and are kept apart here.

Legend:
Assay in all cases: Thermal stability shift assay
Assay type in all cases: binding
MSSK1 = biological target: T1, MSSK1 (Homo sapiens, UniProt Q9UPE1); details: read-out: Tm shift MSSK1
T1 construct: purchased in-house (SGC Oxford thermal shift panel)
How it was run: (§1)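 Inhibitor (10 μM) was mixed with kinase (2 μM) in HEPES-buffered saline (10 mM, pH 7.5; 500 mM NaCl) plus SyproOrange, then the sample was heated stepwise in a real-time PCR machine to record denaturation.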

PKN2 = PKN2 (Homo sapiens, UniProt Q16513); details: read-out: Tm shift PKN2
How it was run: as §1

CK2a1 = CK2a1 (Homo sapiens, UniProt P68400); details: read-out: Tm shift CK2a1
How it was run: as §1

GAK = biological target: T2, GAK (Homo sapiens, UniProt O14976); details: read-out: Tm shift GAK
T2 construct: purchased in-house (SGC Oxford thermal shift panel)
T2 sequence (O14976 1-1311): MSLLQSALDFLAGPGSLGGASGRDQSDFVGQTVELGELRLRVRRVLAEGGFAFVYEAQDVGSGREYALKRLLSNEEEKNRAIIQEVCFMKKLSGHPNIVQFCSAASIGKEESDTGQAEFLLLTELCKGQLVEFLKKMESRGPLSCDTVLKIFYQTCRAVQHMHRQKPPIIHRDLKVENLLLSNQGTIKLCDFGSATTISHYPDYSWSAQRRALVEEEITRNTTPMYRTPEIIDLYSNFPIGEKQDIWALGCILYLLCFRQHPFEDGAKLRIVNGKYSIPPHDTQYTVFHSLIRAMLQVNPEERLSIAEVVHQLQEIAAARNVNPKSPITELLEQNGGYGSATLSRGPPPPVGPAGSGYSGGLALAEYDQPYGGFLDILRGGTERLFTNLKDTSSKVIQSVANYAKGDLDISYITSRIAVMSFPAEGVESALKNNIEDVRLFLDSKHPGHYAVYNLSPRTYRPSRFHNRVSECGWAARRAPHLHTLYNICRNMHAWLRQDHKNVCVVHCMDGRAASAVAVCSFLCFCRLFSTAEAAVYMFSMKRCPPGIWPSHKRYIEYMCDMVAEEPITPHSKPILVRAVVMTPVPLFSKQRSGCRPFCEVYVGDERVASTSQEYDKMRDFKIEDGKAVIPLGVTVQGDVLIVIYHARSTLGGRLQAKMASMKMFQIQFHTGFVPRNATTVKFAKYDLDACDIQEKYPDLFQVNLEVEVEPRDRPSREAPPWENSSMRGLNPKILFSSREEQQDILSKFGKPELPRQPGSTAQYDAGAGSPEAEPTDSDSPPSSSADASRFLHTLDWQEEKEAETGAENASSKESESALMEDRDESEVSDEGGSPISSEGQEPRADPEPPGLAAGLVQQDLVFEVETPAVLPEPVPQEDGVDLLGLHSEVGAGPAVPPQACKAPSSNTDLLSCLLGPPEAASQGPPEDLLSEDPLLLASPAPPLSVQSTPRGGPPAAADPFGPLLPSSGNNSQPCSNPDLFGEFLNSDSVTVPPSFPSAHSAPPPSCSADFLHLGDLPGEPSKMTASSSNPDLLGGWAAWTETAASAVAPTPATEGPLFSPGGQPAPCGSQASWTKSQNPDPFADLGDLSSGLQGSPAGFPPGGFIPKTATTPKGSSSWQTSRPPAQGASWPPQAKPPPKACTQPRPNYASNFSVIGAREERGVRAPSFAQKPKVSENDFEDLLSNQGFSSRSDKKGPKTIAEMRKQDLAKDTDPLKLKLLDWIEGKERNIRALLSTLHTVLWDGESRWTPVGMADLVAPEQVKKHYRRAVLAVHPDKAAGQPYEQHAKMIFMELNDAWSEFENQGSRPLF
How it was run: as §1

CDKL1 = CDKL1 (Homo sapiens, UniProt Q00532); details: read-out: Tm shift CDKL1
How it was run: as §1

CDK8 = CDK8 (Homo sapiens, UniProt P49336); details: read-out: Tm shift CDK8
How it was run: as §1

PCTAIRE1 = biological target: T3, PCTAIRE1 (Homo sapiens, UniProt Q00536); details: read-out: Tm shift PCTAIRE1
T3 construct: purchased in-house (SGC Oxford thermal shift panel)
How it was run: as §1

PRKX = biological target: T4, PRKX (Homo sapiens, UniProt P51817); details: read-out: Tm shift PRKX
T4 sequence (P51817 1-358): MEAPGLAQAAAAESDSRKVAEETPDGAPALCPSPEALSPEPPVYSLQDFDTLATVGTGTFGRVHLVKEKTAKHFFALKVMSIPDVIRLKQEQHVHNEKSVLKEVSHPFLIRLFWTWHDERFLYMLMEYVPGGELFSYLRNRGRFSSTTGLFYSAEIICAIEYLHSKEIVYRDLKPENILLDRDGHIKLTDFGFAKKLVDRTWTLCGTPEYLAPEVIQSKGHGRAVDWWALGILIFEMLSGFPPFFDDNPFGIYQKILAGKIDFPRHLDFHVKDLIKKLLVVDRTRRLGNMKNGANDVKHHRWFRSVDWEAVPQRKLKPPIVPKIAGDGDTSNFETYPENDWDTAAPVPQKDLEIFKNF
How it was run: as §1

NDR1 = biological target: T5, NDR1 (Homo sapiens, UniProt Q15208); details: read-out: Tm shift NDR1
T5 construct: purchased in-house (SGC Oxford thermal shift panel)
How it was run: as §1

smMLCK = smMLCK (Homo sapiens, UniProt Q15746); details: read-out: Tm shift smMLCK
How it was run: as §1

SLK = SLK (Homo sapiens, UniProt Q9H2G2); details: read-out: Tm shift SLK
How it was run: as §1

Chain of CK2a1 (P68400 whole entry): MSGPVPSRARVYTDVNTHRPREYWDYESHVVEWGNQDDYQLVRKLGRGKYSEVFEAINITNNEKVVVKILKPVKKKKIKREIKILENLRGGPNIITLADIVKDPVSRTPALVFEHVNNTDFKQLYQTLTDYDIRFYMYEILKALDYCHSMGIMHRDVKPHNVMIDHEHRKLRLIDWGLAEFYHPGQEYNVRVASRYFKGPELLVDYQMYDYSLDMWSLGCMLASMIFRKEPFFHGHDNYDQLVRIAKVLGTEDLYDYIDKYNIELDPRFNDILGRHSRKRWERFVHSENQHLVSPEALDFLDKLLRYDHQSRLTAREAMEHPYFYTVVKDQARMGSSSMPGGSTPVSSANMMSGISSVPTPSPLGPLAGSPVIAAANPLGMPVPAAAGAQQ
T5 sequence (Q15208 whole entry): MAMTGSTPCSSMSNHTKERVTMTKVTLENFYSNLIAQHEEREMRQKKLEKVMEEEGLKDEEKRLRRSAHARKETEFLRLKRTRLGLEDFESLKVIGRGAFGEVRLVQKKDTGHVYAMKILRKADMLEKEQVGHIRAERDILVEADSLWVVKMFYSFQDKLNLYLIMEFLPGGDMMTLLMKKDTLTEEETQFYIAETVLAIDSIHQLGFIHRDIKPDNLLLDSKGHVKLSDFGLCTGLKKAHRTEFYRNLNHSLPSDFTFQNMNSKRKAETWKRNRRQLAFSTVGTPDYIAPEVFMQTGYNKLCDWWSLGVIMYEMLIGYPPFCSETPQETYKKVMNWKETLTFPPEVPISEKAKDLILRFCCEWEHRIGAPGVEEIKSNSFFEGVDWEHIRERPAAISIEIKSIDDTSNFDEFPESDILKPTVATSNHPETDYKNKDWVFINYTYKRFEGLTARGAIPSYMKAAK
Chain of smMLCK (Q15746 whole entry): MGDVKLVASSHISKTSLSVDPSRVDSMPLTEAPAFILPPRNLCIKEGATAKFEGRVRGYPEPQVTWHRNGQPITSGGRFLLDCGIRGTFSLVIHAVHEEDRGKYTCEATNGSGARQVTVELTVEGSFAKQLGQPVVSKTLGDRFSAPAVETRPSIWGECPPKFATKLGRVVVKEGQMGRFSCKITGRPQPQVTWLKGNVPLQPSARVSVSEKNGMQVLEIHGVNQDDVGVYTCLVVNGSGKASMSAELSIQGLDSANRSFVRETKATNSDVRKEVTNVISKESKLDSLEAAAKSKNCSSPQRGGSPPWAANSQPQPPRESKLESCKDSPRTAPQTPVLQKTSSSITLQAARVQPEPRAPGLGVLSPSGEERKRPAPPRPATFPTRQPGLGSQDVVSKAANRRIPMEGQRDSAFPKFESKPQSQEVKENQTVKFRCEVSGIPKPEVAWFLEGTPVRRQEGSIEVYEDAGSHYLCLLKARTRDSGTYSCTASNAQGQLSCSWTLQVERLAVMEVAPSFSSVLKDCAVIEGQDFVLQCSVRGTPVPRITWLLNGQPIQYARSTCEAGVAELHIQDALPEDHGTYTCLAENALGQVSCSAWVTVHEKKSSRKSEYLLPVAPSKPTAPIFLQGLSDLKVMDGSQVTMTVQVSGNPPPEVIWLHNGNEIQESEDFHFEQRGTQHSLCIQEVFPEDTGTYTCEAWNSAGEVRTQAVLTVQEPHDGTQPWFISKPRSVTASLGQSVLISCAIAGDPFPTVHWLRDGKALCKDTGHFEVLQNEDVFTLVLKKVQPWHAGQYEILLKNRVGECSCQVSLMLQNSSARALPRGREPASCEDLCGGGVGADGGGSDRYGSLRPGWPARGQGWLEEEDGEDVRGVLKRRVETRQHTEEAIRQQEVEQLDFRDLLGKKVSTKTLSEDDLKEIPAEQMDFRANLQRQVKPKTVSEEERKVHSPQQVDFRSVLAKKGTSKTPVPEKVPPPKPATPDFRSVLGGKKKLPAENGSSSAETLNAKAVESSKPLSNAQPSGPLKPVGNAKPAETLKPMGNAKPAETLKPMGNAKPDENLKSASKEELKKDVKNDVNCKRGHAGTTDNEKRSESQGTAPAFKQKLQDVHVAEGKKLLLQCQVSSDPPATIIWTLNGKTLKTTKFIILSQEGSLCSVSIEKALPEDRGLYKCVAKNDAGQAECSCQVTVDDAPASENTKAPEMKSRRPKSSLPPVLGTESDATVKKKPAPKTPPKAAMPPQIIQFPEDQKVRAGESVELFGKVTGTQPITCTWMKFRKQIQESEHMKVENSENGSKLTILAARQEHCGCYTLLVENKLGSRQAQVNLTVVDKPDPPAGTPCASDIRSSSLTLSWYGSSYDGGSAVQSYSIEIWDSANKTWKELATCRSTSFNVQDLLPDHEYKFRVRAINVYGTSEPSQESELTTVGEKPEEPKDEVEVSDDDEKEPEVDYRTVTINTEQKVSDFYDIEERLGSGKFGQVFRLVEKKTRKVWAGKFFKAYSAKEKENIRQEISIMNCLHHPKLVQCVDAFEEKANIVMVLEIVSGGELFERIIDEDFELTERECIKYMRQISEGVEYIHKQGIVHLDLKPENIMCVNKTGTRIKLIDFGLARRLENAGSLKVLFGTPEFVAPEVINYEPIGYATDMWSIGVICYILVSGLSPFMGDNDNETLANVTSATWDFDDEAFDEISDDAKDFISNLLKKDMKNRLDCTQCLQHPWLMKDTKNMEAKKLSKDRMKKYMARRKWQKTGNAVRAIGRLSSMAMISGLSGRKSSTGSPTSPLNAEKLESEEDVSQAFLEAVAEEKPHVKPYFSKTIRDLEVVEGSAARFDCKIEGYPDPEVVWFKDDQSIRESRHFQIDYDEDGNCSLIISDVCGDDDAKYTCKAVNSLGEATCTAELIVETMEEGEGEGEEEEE
Chain of PKN2 (Q16513 whole entry): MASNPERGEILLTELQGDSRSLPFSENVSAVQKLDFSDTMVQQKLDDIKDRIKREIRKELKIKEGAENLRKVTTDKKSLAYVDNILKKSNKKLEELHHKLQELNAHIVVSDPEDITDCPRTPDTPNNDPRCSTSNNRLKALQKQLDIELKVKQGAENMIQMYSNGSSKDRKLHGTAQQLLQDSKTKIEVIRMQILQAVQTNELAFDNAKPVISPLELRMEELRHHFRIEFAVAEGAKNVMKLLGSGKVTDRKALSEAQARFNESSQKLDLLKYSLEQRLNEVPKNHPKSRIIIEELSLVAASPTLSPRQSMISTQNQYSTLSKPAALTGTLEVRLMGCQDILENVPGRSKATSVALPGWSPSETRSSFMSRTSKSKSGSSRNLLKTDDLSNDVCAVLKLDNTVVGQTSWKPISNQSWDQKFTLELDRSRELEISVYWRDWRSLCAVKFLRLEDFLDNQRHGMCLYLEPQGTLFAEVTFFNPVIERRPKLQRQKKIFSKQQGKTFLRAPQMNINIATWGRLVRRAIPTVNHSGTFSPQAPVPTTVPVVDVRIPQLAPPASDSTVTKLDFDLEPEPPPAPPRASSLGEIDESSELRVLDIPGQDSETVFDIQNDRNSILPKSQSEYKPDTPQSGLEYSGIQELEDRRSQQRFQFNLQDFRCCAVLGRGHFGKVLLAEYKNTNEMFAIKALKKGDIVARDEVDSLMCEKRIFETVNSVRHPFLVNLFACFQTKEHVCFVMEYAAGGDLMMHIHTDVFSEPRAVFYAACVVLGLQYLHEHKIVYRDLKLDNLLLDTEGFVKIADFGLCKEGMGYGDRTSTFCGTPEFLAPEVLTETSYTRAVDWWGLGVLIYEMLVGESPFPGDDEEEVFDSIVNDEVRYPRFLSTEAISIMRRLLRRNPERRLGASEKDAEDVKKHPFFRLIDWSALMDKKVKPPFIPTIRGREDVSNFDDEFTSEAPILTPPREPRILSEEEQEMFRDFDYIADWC
Chain of CDKL1 (Q00532 whole entry): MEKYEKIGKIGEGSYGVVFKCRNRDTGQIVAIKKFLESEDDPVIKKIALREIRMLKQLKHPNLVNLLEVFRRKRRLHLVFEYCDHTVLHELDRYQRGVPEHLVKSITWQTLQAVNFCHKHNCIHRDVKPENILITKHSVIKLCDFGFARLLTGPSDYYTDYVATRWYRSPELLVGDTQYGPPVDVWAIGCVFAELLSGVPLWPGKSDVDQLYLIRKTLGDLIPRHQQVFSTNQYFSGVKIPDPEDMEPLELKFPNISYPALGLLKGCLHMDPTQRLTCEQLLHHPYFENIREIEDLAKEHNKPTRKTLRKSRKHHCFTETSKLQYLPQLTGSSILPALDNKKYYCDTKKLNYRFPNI
T3 sequence (Q00536 whole entry): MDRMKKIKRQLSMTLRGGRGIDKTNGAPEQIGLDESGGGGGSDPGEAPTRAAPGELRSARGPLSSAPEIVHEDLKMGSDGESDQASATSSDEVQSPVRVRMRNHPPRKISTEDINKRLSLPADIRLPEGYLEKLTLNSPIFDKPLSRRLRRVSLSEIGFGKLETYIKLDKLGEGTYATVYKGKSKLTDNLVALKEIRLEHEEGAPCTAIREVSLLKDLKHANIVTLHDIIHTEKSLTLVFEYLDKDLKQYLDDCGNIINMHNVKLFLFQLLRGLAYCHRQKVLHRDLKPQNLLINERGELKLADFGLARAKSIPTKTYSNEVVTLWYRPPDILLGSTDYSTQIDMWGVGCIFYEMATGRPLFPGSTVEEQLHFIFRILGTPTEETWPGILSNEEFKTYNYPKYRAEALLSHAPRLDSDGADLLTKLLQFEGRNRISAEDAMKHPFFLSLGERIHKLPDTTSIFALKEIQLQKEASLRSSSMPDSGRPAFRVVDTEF
Chain of CDK8 (P49336 whole entry): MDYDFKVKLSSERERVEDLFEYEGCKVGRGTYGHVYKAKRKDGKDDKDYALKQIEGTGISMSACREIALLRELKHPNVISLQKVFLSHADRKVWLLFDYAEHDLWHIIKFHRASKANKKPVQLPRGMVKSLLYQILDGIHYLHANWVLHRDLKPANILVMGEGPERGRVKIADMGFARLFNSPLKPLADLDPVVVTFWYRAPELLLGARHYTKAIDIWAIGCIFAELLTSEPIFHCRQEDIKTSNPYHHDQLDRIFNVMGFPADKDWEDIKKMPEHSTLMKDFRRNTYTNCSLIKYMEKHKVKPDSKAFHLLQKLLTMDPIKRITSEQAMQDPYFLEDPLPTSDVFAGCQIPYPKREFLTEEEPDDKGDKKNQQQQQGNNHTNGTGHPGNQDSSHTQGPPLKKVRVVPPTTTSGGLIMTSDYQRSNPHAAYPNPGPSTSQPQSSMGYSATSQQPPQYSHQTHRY

| ΔTm at 10 µM (MSSK1; inhibitor 10 μM) [°C] | ΔTm at 10 µM (PKN2; inhibitor 10 μM) [°C] | ΔTm at 10 µM (CK2a1; inhibitor 10 μM) [°C] | ΔTm at 10 µM (GAK; inhibitor 10 μM) [°C] | ΔTm at 10 µM (CDKL1; inhibitor 10 μM) [°C] | ΔTm at 10 µM (CDK8; inhibitor 10 μM) [°C] | ΔTm at 10 µM (PCTAIRE1; inhibitor 10 μM) [°C] | ΔTm at 10 µM (PRKX; inhibitor 10 μM) [°C] | ΔTm at 10 µM (NDR1; inhibitor 10 μM) [°C] | ΔTm at 10 µM (smMLCK; inhibitor 10 μM) [°C] | ΔTm at 10 µM (SLK; inhibitor 10 μM) [°C] | Compound | ΔTm at 10 µM (MSSK1) [°C] | ΔTm at 10 µM (PKN2) [°C] | ΔTm at 10 µM (CK2a1) [°C] | ΔTm at 10 µM (GAK) [°C] | ΔTm at 10 µM (CDKL1) [°C] | ΔTm at 10 µM (CDK8) [°C] | ΔTm at 10 µM (PCTAIRE1) [°C] | ΔTm at 10 µM (PRKX) [°C] | ΔTm at 10 µM (NDR1) [°C] | also measured |
| --- | --- | --- | --- | --- | --- | --- | --- | --- | --- | --- | --- | --- | --- | --- | --- | --- | --- | --- | --- | --- | --- |
| – | – | – | – | – | – | – | – | – | – | – | CCOC(=O)c1c(C(C#N)=CN)c2ccc(Cl)c(Cl)c2n1C (mixture of isomers) [KH-CB20, (E/Z)-Ethyl 3-(2-Amino-1-Cyanovinyl)-6,7-Dichloro-1-Methyl-1H-Indole-2-Carboxylate] | 0.5 | 0.1 | 1.1 | 0.8 | 0.2 | 1.3 | 0.1 | 0.4 | 0.3 | ΔTm at 10 µM (smMLCK): 0.6 °C; ΔTm at 10 µM (SLK): 0.1 °C |
| 0.3 | -0.5 | 1.4 | 0.4 | 0.6 | 0.4 | 0.4 | 0.3 | 0.4 | 1.1 | -0.7 | CCOC(=O)c1c(C(C#N)=CN(C)C)c2ccc(Cl)c(Cl)c2n1C (mixture of isomers) [compound 2, (E/Z)-Ethyl 6,7-Dichloro-3-[1-Cyano-2-(Dimethylamino)Vinyl]-1-Methyl-1H-Indole-2-Carboxylate] | – | – | – | – | – | – | – | – | – | – |
| – | – | – | – | – | – | – | – | – | – | – | CCOC(=O)c1c(/C(C#N)=C\N)c2ccc(Cl)c(Cl)c2n1C [KH-CB19, (E)-Ethyl 3-(2-Amino-1-Cyanovinyl)-6,7-Dichloro-1-Methyl-1H-Indole-2-Carboxylate] | 0.2 | 0.6 | 1.3 | 0.4 | 0 | 1.5 | 0.4 | 0.5 | 0.2 | ΔTm at 10 µM (smMLCK): 0.5 °C; ΔTm at 10 µM (SLK): 0 °C |
| 0.3 | 2.3 | 1.3 | 0.8 | 0.2 | 2.5 | 0.4 | 0.5 | 0.7 | 0.5 | -0.6 | Cn1c2c(Cl)c(Cl)ccc2c2c(C#N)c[nH]c(=O)c21 [compound 3, 7,8-Dichloro-9-Methyl-1-Oxo-2,9-Dihydro-1H-Pyrido[3,4-b]Indole-4-Carbonitrile] | – | – | – | – | – | – | – | – | – | – |

| Compound | ΔTm at 10 µM (MSSK1; inhibitor 10 μM) [°C] | ΔTm at 10 µM (PKN2; inhibitor 10 μM) [°C] | ΔTm at 10 µM (CK2a1; inhibitor 10 μM) [°C] | ΔTm at 10 µM (GAK; inhibitor 10 μM) [°C] | ΔTm at 10 µM (CDKL1; inhibitor 10 μM) [°C] | ΔTm at 10 µM (CDK8; inhibitor 10 μM) [°C] | ΔTm at 10 µM (PCTAIRE1; inhibitor 10 μM) [°C] | ΔTm at 10 µM (PRKX; inhibitor 10 μM) [°C] | ΔTm at 10 µM (NDR1; inhibitor 10 μM) [°C] | ΔTm at 10 µM (smMLCK; inhibitor 10 μM) [°C] | ΔTm at 10 µM (SLK; inhibitor 10 μM) [°C] | ΔTm at 10 µM (MSSK1) [°C] | ΔTm at 10 µM (PKN2) [°C] | ΔTm at 10 µM (CK2a1) [°C] | ΔTm at 10 µM (GAK) [°C] | ΔTm at 10 µM (CDKL1) [°C] | ΔTm at 10 µM (CDK8) [°C] | ΔTm at 10 µM (PCTAIRE1) [°C] | ΔTm at 10 µM (PRKX) [°C] | ΔTm at 10 µM (NDR1) [°C] | also measured |
| --- | --- | --- | --- | --- | --- | --- | --- | --- | --- | --- | --- | --- | --- | --- | --- | --- | --- | --- | --- | --- | --- |
| NC1=NC(=O)/C(=C2\CCNC(=O)c3[nH]c(Br)cc32)N1 [Hymenialdisine, hymenialdisine, reference compound] | 0.3 | 0.8 | 0.8 | 3.8 | 0.6 | 0.1 | 0.7 | 0.3 | 1 | 1.9 | 2.1 | – | – | – | – | – | – | – | – | – | – |
